The subject of data set [1] is Leishmania donovani. Kind of data set: GSK_TCAKS: pIC50 Leishmania donovani viability assay using fluorescence intensity. Assay plates (1536-well) were prepared by adding 30nL per well of compound. For single shot assay, the final compound concentration was 5uM. […] Briefly, eGFP LdBOB axenic amastigotes were harvested, fixed and counted in a CASY cell counter (Roche-Applied Science). A final concentration of 1.5 * 10^5 cells per well were prepared in amastigote media containing 500 U/mL penicillin/streptomycin (Invitrogen) and 6uL was dispensed to each experimental well using a Multidrop Combi dispenser (Thermo Scientific). 6uL of assay media was dispensed to control columns used as reference for 100% compound response. Following incubation for 72 h at 37C, 5% CO2, 2 uL of resazurin was added to each well at a final concentration of 0.5 mM in phosphate buffered saline (PBS) with IGEPAL (Sigma-Aldrich), 0.05% (v/v). In kind it is functional, organism-based. On the technique in general: Resazurin is reduced to fluorescent resorufin, in cell work by metabolically active cells.

For data set [2], the system named is Leishmania donovani. Kind of data set: GSK_TCAKS: pIC50 Leishmania donovani Imaging: Infected Macrophages. Assay plates (384-well) were prepared by adding 250nL of compound to each well. For single shot assay, the final compound concentration was 5 uM. […] Automated image analysis was performed with a script developed on Acapella High Content Imaging and Analysis Software (PerkinElmer). Output: Percent of infected macrophage cells were reported for each well. The settings on record: THP-1. It counts as functional, organism-based, Homo sapiens.

The test system of data set [3] is Leishmania donovani. The experiment in a line: GSK_TCAKS: pIC50 Leishmania donovani Imaging: Amastigotes/Macrophages. Assay plates (384-well) were prepared by adding 250nL of compound to each well. For single shot assay, the final compound concentration was 5 uM. […] Automated image analysis was performed with a script developed on Acapella High Content Imaging and Analysis Software (PerkinElmer). Output: Average number of amastigotes per macrophage cell were reported for each well. In kind it is functional, organism-based, Homo sapiens. The settings on record: THP-1.

Data set [4] concerns Leishmania donovani. The experiment in a line: GSK_TCAKS: pIC50 Leishmania donovani Imaging: THP-1 Host Macrophages. Assay plates (384-well) were prepared by adding 250nL of compound to each well. For single shot assay, the final compound concentration was 5 uM. […] Automated image analysis was performed with a script developed on Acapella High Content Imaging and Analysis Software (PerkinElmer). Output: THP-1 cell count were reported for each well. In kind it is functional, organism-based, Homo sapiens.

The nature of data set [5]: GSK_TCAKS: pIC50 HepG2 human cell line viability assay using luminiscence. […] Seeding density was checked to ensure that new mono-layers were not more than 50% confluent at the time of harvesting. Cell suspension was added to 500 mL of the same medium at a final density of 1.2 * 10^5 cells/mL. This cell suspension was dispensed (25 uL, 3000 cells per well) into 384-well clear-bottom plates using a Multidrop Combi dispenser. Prior to addition of the cell suspension, the screening compounds (250 nL) were pre-dispensed into the plates with an Echo liquid handler. Plates were incubated for 48 h at 37C, 5% CO2. After incubation, plates equilibrated at room temperature for 30 min before proceeding to develop the luminescent signal. The signal developer, CellTiter-Glo Reagent, was allowed to equilibrate at room temperature for 30 min and added to the plates (25uL per well) using a Multidrop Combi dispenser. Plates were left for 10 min at room temperature for stabilization and then read using a ViewLux. In kind it is toxicity, cell-based. Background: ATP-based viability assays read luminescence as a measure of living cells.

For data set [6], the target named is Sterol 14-alpha demethylase (Trypanosoma cruzi (strain CL Brener), UniProt Q7Z1V1). Kind of data set: GSK_TCAKS: pIC50 CYP51 from Trypanosoma cruzi. In kind it is functional.
Sequence of Sterol 14-alpha demethylase (Q7Z1V1 whole entry): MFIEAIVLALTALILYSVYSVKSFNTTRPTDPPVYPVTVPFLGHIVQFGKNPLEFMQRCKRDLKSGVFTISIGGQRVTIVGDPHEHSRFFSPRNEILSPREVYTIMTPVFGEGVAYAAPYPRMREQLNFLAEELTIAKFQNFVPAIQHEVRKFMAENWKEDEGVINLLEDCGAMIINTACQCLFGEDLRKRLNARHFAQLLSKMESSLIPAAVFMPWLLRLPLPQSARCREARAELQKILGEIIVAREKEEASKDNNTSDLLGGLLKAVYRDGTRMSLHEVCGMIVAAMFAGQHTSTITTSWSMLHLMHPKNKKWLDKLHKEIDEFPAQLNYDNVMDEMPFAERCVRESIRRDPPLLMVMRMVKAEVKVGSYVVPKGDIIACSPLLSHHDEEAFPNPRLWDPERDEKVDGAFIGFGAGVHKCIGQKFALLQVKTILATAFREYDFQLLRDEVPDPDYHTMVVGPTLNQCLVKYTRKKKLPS
For data set [7], the system named is Trypanosoma cruzi. The experiment in a line: GSK_TCAKS: pIC50 Trypanosoma cruzi viability assay using beta-GAL activity. This assay was run at single shot at 5uM compound concentration per well. The biological reagents consisted of NIH-3T3 host cells and trypomastigotes parasitic cells; both cell types were set to a 3.3 * 10^5 cells/mL dilution in assay DMEM by means of a CASY cell counter device using a 60um capillary. 6 uL of the mixture were dispensed per well (about 1 * 10^3 host-cells and 1 * 10^3 parasites) with a Multidrop Combi dispenser. […] In all wells, the percentage of DMSO never exceeded 0.5%. Plates incubated for four days at 37C, 5% CO2. The substrate used for the assay fluorescence intensity (FLINT) readout was resorufin-beta-D-galactopiranoside (Sigma-Aldrich) at 5uM per well. It was diluted in PBS supplemented with the soft detergent Igepal (Fluka). Conditions: Tulahuen, NIH3T3. In kind it is functional, organism-based, Mus musculus.

The test system of data set [8] is Trypanosoma cruzi. Kind of data set: (§1) GSK_TCAKS: pIC50 Trypanosoma cruzi Imaging: Infected Cells. […] Cells were then washed once with PBS before infection. T. cruzi trypomastigotes, collected at days 5 to 8 after infection from LLC-MK2 parasite infected cultures, were allowed to swim out for 4h at 37C from a centrifuged pellet (2,500 rpm/10 min/room temperature). Trypomastigotes were then collected and counted in a CASY Cell Counter. Trypomastigotes, in supplemented DMEM, were added to H9c2 cultures in a multiplicity of infection of 1 and incubated for 18 h. Cells were washed once with PBS before incubation of the infected H9c2 monolayer with trypsin (Life-Technologies) to detach cells from the flask. Cells were counted in a CASY Cell Counter using a 150 um capillary and their density set at 5 * 10^4 cells per mL in supplemented assay DMEM. Infected H9c2 were dispensed into 384-well poly-lysine coated assay plates at 50uL per well using a Multidrop Combi dispenser. After seeding them, the plates were incubated at 37C, 5% CO2 for 72h. Cultures were then fixed and stained by addition of 50 uL of a solution containing 8% formaldehyde and 4 uM DRAQ5 DNA dye (BioStatus, UK) per well. […] Five images were collected per well for reliable statistical analysis. Automated image analysis was performed with a script developed on Acapella High Content Imaging and Analysis Software (PerkinElmer). Output: percentage of infected cells per well as a second infection marker. In kind it is functional, organism-based, Rattus norvegicus. The settings on record: H9c2, 4 h.

The test system of data set [9] is Trypanosoma cruzi. Kind of data set: GSK_TCAKS: pIC50 Trypanosoma cruzi Imaging: Amastigotes/Cell. […] Cells were then washed once with PBS before infection. T. cruzi trypomastigotes, collected at days 5 to 8 after infection from LLC-MK2 parasite infected cultures, were allowed to swim out for 4h at 37C from a centrifuged pellet (2,500 rpm/10 min/room temperature). Trypomastigotes were then collected and counted in a CASY Cell Counter. Trypomastigotes, in supplemented DMEM, were added to H9c2 cultures in a multiplicity of infection of 1 and incubated for 18 h. Cells were washed once with PBS before incubation of the infected H9c2 monolayer with trypsin (Life-Technologies) to detach cells from the flask. Cells were counted in a CASY Cell Counter using a 150 um capillary and their density set at 5 * 10^4 cells per mL in supplemented assay DMEM. Infected H9c2 were dispensed into 384-well poly-lysine coated assay plates at 50uL per well using a Multidrop Combi dispenser. After seeding them, the plates were incubated at 37C, 5% CO2 for 72h. Cultures were then fixed and stained by addition of 50 uL of a solution containing 8% formaldehyde and 4 uM DRAQ5 DNA dye (BioStatus, UK) per well. […] Five images were collected per well for reliable statistical analysis. Automated image analysis was performed with a script developed on Acapella High Content Imaging and Analysis Software (PerkinElmer). Output: number of amastigotes per cell as infection level measurement. Conditions: H9c2, 4 h. In kind it is functional, organism-based, Rattus norvegicus.

The subject of data set [10] is Trypanosoma cruzi. The description is as §1, with “H2C9” for “Trypanosoma cruzi”, “H9c2 Host Cardiomyocytes.” for “Infected Cells.”, “Number” for “percentage”, “H9c2 Host Cardiomyocytes nuclei to determine drug-related cytotoxicity.” for “infected cells per well as a second infection marker.”. It counts as functional, organism-based, Rattus norvegicus. Conditions: H9c2, 4 h.

In data set [11] the test system is Trypanosoma brucei brucei. Kind of data set: GSK_TCAKS: pIC50 Trypanosoma brucei viability assay using fluorescence intensity. Assay plates (1536-well) were prepared by dispensing 25nL of compound solution per well using an Echo acoustic dispenser (Labcyte). Conditions: Lister 427, 2 h. In kind it is functional, organism-based.
In data set [12] the test system is Trypanosoma brucei brucei. Kind of data set: GSK_TCAKS: pIC50 Trypanosoma brucei viability assay using luminiscence. Assay plates (1536-well) were prepared. T. brucei cultures were harvested and counted in a CASY cell counter. A parasite suspension was prepared at a final concentration of 5 * 10^4 cells/mL in complete HMI9 medium and 6uL was dispensed to all wells containing compounds using a Multidrop Combi dispenser. 6uL of HMI9 media with 0.4% DMSO were dispensed to control columns. Plates were incubated for 24 h at 37C, 5% CO2 then tempered for 10 min at room temperature. ATP content was quantified by adding 4 uL of CellTiter-Glo Reagent (Promega) according to the manufacturer's instructions. Luminescence was measured using a ViewLux. In kind it is functional, organism-based. Conditions: Lister 427, CASY.

pIC50: −log10 of the molar value. Bounds are passed on as bounds.

On to `Nc1nc(-c2ccccn2)nc(-n2nc(-c3cccc(C(F)(F)F)c3)cc2N)n1`, for which the negative-log IC50 (pIC50) (commonly the negative decadic logarithm of the IC50, by convention in mol/L) with Leishmania donovani [1] was 5.00; in the data set on Leishmania donovani [2], 6.10; in the data set with Leishmania donovani [3], 6.30; with Leishmania donovani [4], 5.30; in data set [6], less than 4.00. In addition, in [5], the IC50 (commonly the concentration at which inhibition is half-maximal) at 48 h is 20 µM.
Consider `c1ccc2sc(Nc3nc4ncccc4[nH]3)nc2c1`, for which the negative logarithm of the IC50 (pIC50) with Trypanosoma cruzi [7] was 6.00; with Trypanosoma cruzi [8] it was 5.80; in the data set on Trypanosoma cruzi [9], 5.90; in the data set with Trypanosoma cruzi [10] it was 6.00; in the data set with Leishmania donovani [1], 5.80; in the data set with Leishmania donovani [2], 5.60. Also, the negative-log IC50 (pIC50) in the data set with Leishmania donovani [3] is 5.90; in the data set on Leishmania donovani [4], 4.80; in data set [11], 6.00; in [12], 5.80. The IC50 at 48 h in data set [5] was 20 µM.
Regarding `COCc1cc(Nc2cccc(Cl)c2)nc(-c2ccccn2)n1`, the pIC50 is 5.60 in the data set on Leishmania donovani [1], 5.80 in the data set on Leishmania donovani [2], 6.20 in the data set with Leishmania donovani [3] and less than 4.30 in the data set on Leishmania donovani [4]. In data set [5], this compound had a 50% inhibitory concentration (IC50) at 48 h of 39.8 µM.
On the same counts, the results for `COc1ccc(NS(=O)(=O)c2ccc(S(=O)(=O)N(C)C3CCCCC3)cc2)c2ncccc12` are less than 4.30, 6.50, 6.80, less than 4.30 and more than 100 µM.
Turning to `CCN(CC)S(=O)(=O)c1ccc(C)c(NC(=O)c2cc(Cl)c3c(c2)OCO3)c1`, the pIC50 with Trypanosoma cruzi [7] is 5.20; with Trypanosoma cruzi [8], less than 4.30; in the data set on Trypanosoma cruzi [9], less than 4.30; with Trypanosoma cruzi [10], 4.60; in the data set with Leishmania donovani [1], less than 4.30; in the data set on Leishmania donovani [2], less than 4.30. Besides, the pIC50 in the data set on Leishmania donovani [3] is less than 4.30; with Leishmania donovani [4], less than 4.30; in [11], 6.50; in [12] it was 6.80. For the same compound, the IC50 at 48 h in data set [5] is more than 100 µM.
As for `COc1ccc(Oc2ccc(C(C)N(C)c3ncc4c(N)nc(N)nc4n3)cc2)cc1` (centres undefined), the negative logarithm of the IC50 (pIC50) in the data set on Leishmania donovani [1] was 7.40; with Leishmania donovani [2] it was 7.00; in the data set on Leishmania donovani [3] it was 7.30; with Leishmania donovani [4] it was 4.80; in data set [6], 5.80. In data set [5], this compound gave an IC50 at 48 h of 39.8 µM.
On to `Cc1[nH]nc(-c2nc3ccccc3[nH]2)c1C(=O)NC1CCCNC1` (centres undefined), for which the negative-log IC50 (pIC50) in the data set with Trypanosoma cruzi [7] is 6.10; with Trypanosoma cruzi [8], 7.20; in the data set with Trypanosoma cruzi [9], 7.40; in the data set with Trypanosoma cruzi [10], 5.50; with Leishmania donovani [1] it was 5.00; in the data set with Leishmania donovani [2], 5.20. For the same compound, the pIC50 in the data set with Leishmania donovani [3] was 5.20; in the data set on Leishmania donovani [4], 5.80; in data set [11], 6.40; in data set [12], 6.30. Also, the IC50 at 48 h in data set [5] is more than 100 µM.
For the compound `CNS(=O)(=O)c1ccccc1Nc1nc(Nc2ccnn2C)ncc1Cl`, the negative logarithm of the IC50 (pIC50) with Trypanosoma cruzi [7] was 6.40; in the data set on Trypanosoma cruzi [8], 6.00; with Trypanosoma cruzi [9], 6.20; with Leishmania donovani [2], 6.20; with Leishmania donovani [3] it was 6.40; in [11], 7.20. The pIC50 in data set [12] is 7.00; in data set [6], 4.50. Besides, it took 50.1 µM to reach half-maximal inhibition in [5] (IC50 at 48 h).

For the origin of these results see ChEMBL document CHEMBL3430912, “GSK Tres Cantos Anti-Kinetoplastid Screening (TCAKS) Data”.
